# Results from ChEMBL document CHEMBL3885861, “Open TG-GATES”.
# Species on record: Rattus norvegicus
# Test: Open TG-GATES - Regimen: Daily Repeat
# Format: toxicity, organism-based, Sprague-Dawley
# Parameters: regimen Daily Repeat, gender Male, age 6 weeks
# Settings: in vivo, po, 60 mg/kg, route gavage, dose level High; for APTT / Bas / Eos / Fbg / Hb / Ht / Lym / MCH / MCHC / MCV / Mono / Neu / PT / Plat / RBC / Ret / WBC: tissue Blood; for KIDNEY_L / KIDNEY_R / KIDNEY_TOTAL: tissue Kidney; for LIVER: tissue Liver; for A/G / ALP / ALT / AST / BUN / CRE / Ca / Cl / DBIL / GLC / IP / K / LDH / Na / PL / RALB / TBIL / TC / TG / TP / gamma-GTP: tissue Plasma
smiles,measurement,setting,value
CC(C)NNC(=O)c1ccncc1 [IPRONIAZID],TERMINAL_BW,"72 h, time 3 day",184.6 g
same,APTT,"72 h, time 3 day",22.8 s
same,Bas,"72 h, time 3 day",0%
same,Eos,"72 h, time 3 day",0.8%
same,Fbg,"72 h, time 3 day",317.4 mg/dL
same,Hb,"72 h, time 3 day",13.1 g/dL
same,Ht,"72 h, time 3 day",38.2%
same,Lym,"72 h, time 3 day",86.2%
same,MCH,"72 h, time 3 day",20.5 pg
same,MCHC,"72 h, time 3 day",34.4%
same,MCV,"72 h, time 3 day",59.6 fL
same,Mono,"72 h, time 3 day",1.6%
same,Neu,"72 h, time 3 day",10.8%
same,PT,"72 h, time 3 day",16.9 s
same,Plat,"72 h, time 3 day",145 x10_4/uL
same,RBC,"72 h, time 3 day",640.8 x10_4/ul
same,Ret,"72 h, time 3 day",5.5%
same,WBC,"72 h, time 3 day",90.9 x10_2/uL
same,KIDNEY_L,"72 h, time 3 day",0.9 g
same,KIDNEY_R,"72 h, time 3 day",0.9 g
same,KIDNEY_TOTAL,"72 h, time 3 day",1.7 g
same,LIVER,"72 h, time 3 day",8.1 g
same,A/G,"72 h, time 3 day",1.2
same,ALP,"72 h, time 3 day",1455.4 IU/L
same,ALT,"72 h, time 3 day",34 IU/L
same,AST,"72 h, time 3 day",78.2 IU/L
same,BUN,"72 h, time 3 day",20.4 mg/dL
same,CRE,"72 h, time 3 day",0.2 mg/dL
same,Ca,"72 h, time 3 day",10.2 mg/dL
same,Cl,"72 h, time 3 day",108.2 meq/L
same,DBIL,"72 h, time 3 day",0.002 mg/dL
same,GLC,"72 h, time 3 day",175.4 mg/dL
same,IP,"72 h, time 3 day",7.2 mg/dL
same,K,"72 h, time 3 day",4.2 meq/L
same,LDH,"72 h, time 3 day",305.2 IU/L
same,Na,"72 h, time 3 day",143.4 meq/L
same,PL,"72 h, time 3 day",149.6 mg/dL
same,RALB,"72 h, time 3 day",3.2 g/dL
same,TBIL,"72 h, time 3 day",0.04 mg/dL
same,TC,"72 h, time 3 day",89.6 mg/dL
same,TG,"72 h, time 3 day",61.2 mg/dL
same,TP,"72 h, time 3 day",5.8 g/dL
same,gamma-GTP,"72 h, time 3 day",1.2 IU/L
same,TERMINAL_BW,"[…], time 7 day",201.3 g
same,TERMINAL_BW,"[…], time 14 day",239 g
same,TERMINAL_BW,"[…], time 28 day",299.7 g
same,APTT,"[…], time 7 day",21.6 s
same,Bas,"[…], time 7 day",0%
same,Eos,"[…], time 7 day",1%
same,Fbg,"[…], time 7 day",275.8 mg/dL
same,Hb,"[…], time 7 day",11.7 g/dL
same,Ht,"[…], time 7 day",33.9%
same,Lym,"[…], time 7 day",77.2%
same,MCH,"[…], time 7 day",20.4 pg
same,MCHC,"[…], time 7 day",34.4%
same,MCV,"[…], time 7 day",59.3 fL
same,Mono,"[…], time 7 day",2.2%
same,Neu,"[…], time 7 day",19%
same,PT,"[…], time 7 day",16.3 s
same,Plat,"[…], time 7 day",121.7 x10_4/uL
same,RBC,"[…], time 7 day",571.6 x10_4/ul
same,Ret,"[…], time 7 day",7.4%
same,WBC,"[…], time 7 day",126.5 x10_2/uL
same,APTT,"[…], time 14 day",21.3 s
same,Bas,"[…], time 14 day",0%
same,Eos,"[…], time 14 day",1%
same,Fbg,"[…], time 14 day",302.2 mg/dL
same,Hb,"[…], time 14 day",11.4 g/dL
same,Ht,"[…], time 14 day",35.7%
same,Lym,"[…], time 14 day",78%
same,MCH,"[…], time 14 day",22.2 pg
same,MCHC,"[…], time 14 day",31.8%
same,MCV,"[…], time 14 day",69.8 fL
same,Mono,"[…], time 14 day",2%
same,Neu,"[…], time 14 day",18.4%
same,PT,"[…], time 14 day",16.5 s
same,Plat,"[…], time 14 day",115.4 x10_4/uL
same,RBC,"[…], time 14 day",511.4 x10_4/ul
same,Ret,"[…], time 14 day",19.5%
same,WBC,"[…], time 14 day",131.9 x10_2/uL
same,APTT,"[…], time 28 day",21.5 s
same,Bas,"[…], time 28 day",0%
same,Eos,"[…], time 28 day",0.8%
same,Fbg,"[…], time 28 day",352.8 mg/dL
same,Hb,"[…], time 28 day",11.9 g/dL
same,Ht,"[…], time 28 day",35%
same,Lym,"[…], time 28 day",77%
same,MCH,"[…], time 28 day",21.6 pg
same,MCHC,"[…], time 28 day",33.9%
same,MCV,"[…], time 28 day",63.7 fL
same,Mono,"[…], time 28 day",2.2%
same,Neu,"[…], time 28 day",18.8%
same,PT,"[…], time 28 day",16.9 s
same,Plat,"[…], time 28 day",108.7 x10_4/uL
same,RBC,"[…], time 28 day",550.2 x10_4/ul
same,Ret,"[…], time 28 day",12.4%
same,WBC,"[…], time 28 day",121.5 x10_2/uL
same,KIDNEY_L,"[…], time 7 day",1 g
same,KIDNEY_R,"[…], time 7 day",0.9 g
same,KIDNEY_TOTAL,"[…], time 7 day",1.9 g
same,KIDNEY_L,"[…], time 14 day",1 g
same,KIDNEY_R,"[…], time 14 day",1 g
same,KIDNEY_TOTAL,"[…], time 14 day",2.1 g
same,KIDNEY_L,"[…], time 28 day",1.2 g
same,KIDNEY_R,"[…], time 28 day",1.2 g
same,KIDNEY_TOTAL,"[…], time 28 day",2.4 g
same,LIVER,"[…], time 7 day",8.5 g
same,LIVER,"[…], time 14 day",10.1 g
same,LIVER,"[…], time 28 day",11.8 g
same,A/G,"[…], time 7 day",1.2
same,ALP,"[…], time 7 day",1212.6 IU/L
same,ALT,"[…], time 7 day",34.4 IU/L
same,AST,"[…], time 7 day",82 IU/L
same,BUN,"[…], time 7 day",22.2 mg/dL
same,CRE,"[…], time 7 day",0.2 mg/dL
same,Ca,"[…], time 7 day",10.1 mg/dL
same,Cl,"[…], time 7 day",108 meq/L
same,DBIL,"[…], time 7 day",0.024 mg/dL
same,GLC,"[…], time 7 day",180.6 mg/dL
same,IP,"[…], time 7 day",7 mg/dL
same,K,"[…], time 7 day",4 meq/L
same,LDH,"[…], time 7 day",241.4 IU/L
same,Na,"[…], time 7 day",142.8 meq/L
same,PL,"[…], time 7 day",151.6 mg/dL
same,RALB,"[…], time 7 day",3.1 g/dL
same,TBIL,"[…], time 7 day",0.086 mg/dL
same,TC,"[…], time 7 day",85.8 mg/dL
same,TG,"[…], time 7 day",55.2 mg/dL
same,TP,"[…], time 7 day",5.6 g/dL
same,gamma-GTP,"[…], time 7 day",1.6 IU/L
same,A/G,"[…], time 14 day",1.2
same,ALP,"[…], time 14 day",1104 IU/L
same,ALT,"[…], time 14 day",41 IU/L
same,AST,"[…], time 14 day",79 IU/L
same,BUN,"[…], time 14 day",19.6 mg/dL
same,CRE,"[…], time 14 day",0.2 mg/dL
same,Ca,"[…], time 14 day",10 mg/dL
same,Cl,"[…], time 14 day",106.8 meq/L
same,DBIL,"[…], time 14 day",0.01 mg/dL
same,GLC,"[…], time 14 day",174 mg/dL
same,IP,"[…], time 14 day",7 mg/dL
same,K,"[…], time 14 day",4.1 meq/L
same,LDH,"[…], time 14 day",201.2 IU/L
same,Na,"[…], time 14 day",141.4 meq/L
same,PL,"[…], time 14 day",165.8 mg/dL
same,RALB,"[…], time 14 day",3 g/dL
same,TBIL,"[…], time 14 day",0.058 mg/dL
same,TC,"[…], time 14 day",92.4 mg/dL
same,TG,"[…], time 14 day",82.8 mg/dL
same,TP,"[…], time 14 day",5.6 g/dL
same,gamma-GTP,"[…], time 14 day",1.8 IU/L
same,A/G,"[…], time 28 day",1.1
same,ALP,"[…], time 28 day",1056.8 IU/L
same,ALT,"[…], time 28 day",25 IU/L
same,AST,"[…], time 28 day",66.8 IU/L
same,BUN,"[…], time 28 day",18.6 mg/dL
same,CRE,"[…], time 28 day",0.2 mg/dL
same,Ca,"[…], time 28 day",10.2 mg/dL
same,Cl,"[…], time 28 day",105.8 meq/L
same,DBIL,"[…], time 28 day",0.004 mg/dL
same,GLC,"[…], time 28 day",182 mg/dL
same,IP,"[…], time 28 day",6.6 mg/dL
same,K,"[…], time 28 day",4.1 meq/L
same,LDH,"[…], time 28 day",156.6 IU/L
same,Na,"[…], time 28 day",141.8 meq/L
same,PL,"[…], time 28 day",149.6 mg/dL
same,RALB,"[…], time 28 day",3.1 g/dL
same,TBIL,"[…], time 28 day",0.09 mg/dL
same,TC,"[…], time 28 day",87 mg/dL
same,TG,"[…], time 28 day",76.6 mg/dL
same,TP,"[…], time 28 day",6 g/dL
same,gamma-GTP,"[…], time 28 day",2.4 IU/L
